Results: patent US12343397B2, “Drug-resistant immune cells and methods of use thereof” (Regents of the University of Minnesota, priority 2018, dated 2025)

What was measured:
[1] = tested on: exon 2 of NR3C1; experiment: Surveyor nuclease assay of NR3C1 gRNA candidates in human primary T-cells; format: cell-based; settings: Cas9 with gRNA
Experimental: FIGS. 3A-3D depicts the process of gene editing of NR3C1 glucocorticoid receptor by CRISPR guide RNA and Cas9. FIG. 3A depicts a schematic illustrating the process of gene transfer. T cells or Tregs were harvested and activated with CD3/CD28 beads for 48 h (fresh) or 72 h (frozen). The Neon electroporation device was used to deliver Cas9 mRNA or protein with a gene specific guide RNA. FIG. 3B depicts a schematic illustrating NR3C1 gene targeting. Four sites in exon 2 were identified and tested. Four candidates were identified. The candidates were tested using the Surveyor method. FIG. 3C depicts a schematic illustrating the Surveyor assay. Gene modified (“mutant amplicon”) and unmodified (“wild type amplicon”) are hybridized resulting in homo- or heteroduplexes. Heteroduplexes caused by pairing of gene edited and wild type sequences are cleaved by the Surveyor enzyme resulting in predictable DNA fragments.
Using these parameters the use of CRISPR/Cas9 engineering of T-cells was pursued using the experimental schema as shown in FIG. 3A. Human primary T-cells were grown in the presence of IL-2 and activated with CD3/CD28 beads for 48-72 hours. The CRISPR/Cas9 reagents used a guide RNA transcript (Synthego) and recombinant Cas9 peptide (Aldevron) that were delivered using the Neon electroporation device (ThermoFisher). […]

[2] = tested on: Tregs; experiment: Survival of CRISPR/Cas9 NR3C1 knockout Tregs ± Dexamethasone; format: cell-based, human; settings: Tregs electroporated with CRISPR/Cas9 RNP; Dexamethasone 30 μg/ml, 48 hours
Experimental: FIGS. 4A-4D depicts CRISPR/Cas9-mediated NR3C1 knockout in Tregs. Guide RNA candidates GR1 and GR2 were electroporated into activated Tregs as a ribonucleoprotein particle (RNP) with the Cas9 peptide. FIG. 4A depicts a schematic illustrating the culture process. FIG. 4B depicts a plot assessing the survival of Tregs after 72 h 30 μg/mL of Dexamethasone was added in the conditions as indicated. […] The NR3C1 locus was amplified from the pool of cells and indel analysis was performed by TIDE. The total gene modification rates were 35% and 44% for the pre- and post-Dexamethasone cells, respectively. The graph corresponds to the indel pattern observed in each population. […]
To determine whether the GR1 and GR2 guides were also capable of knocking out the NR3C1 locus in cultures of clinically-relevant Tregs, banked Tregs were thawed and re-stimulated with anti-CD3/28 beads in high dose IL-2 (300 U/ml). […] After 2 days, Treg cultures were harvested and were re-cultured±Dexamethasone (30 μg/ml) for an additional 48 hours (7 days total), at which time cultures were harvested, and relative survival was assessed by flow cytometry using a viability dye and counting beads. […] As such, the indel pattern using a sequence trace decomposition algorithm called TIDE (tracking of indels by decomposition) was assessed. Pre- and post-Dexamethasone exposure samples were analyzed (FIGS. 4C and 4D, respectively). […]

[3] = tested on: NR3C1 locus; experiment: Indel analysis of the NR3C1 locus by TIDE; format: cell-based, human
Experimental: FIGS. 4A-4D depicts CRISPR/Cas9-mediated NR3C1 knockout in Tregs. Guide RNA candidates GR1 and GR2 were electroporated into activated Tregs as a ribonucleoprotein particle (RNP) with the Cas9 peptide. FIG. 4A depicts a schematic illustrating the culture process. FIG. 4B depicts a plot assessing the survival of Tregs after 72 h 30 μg/mL of Dexamethasone was added in the conditions as indicated. […] The NR3C1 locus was amplified from the pool of cells and indel analysis was performed by TIDE. The total gene modification rates were 35% and 44% for the pre- and post-Dexamethasone cells, respectively. The graph corresponds to the indel pattern observed in each population. Without being bound by any theory, it is predicted that out of frame indels (e.g., those non-divisible by three) will result in gene inactivation. Y-axis indicates the number of indels as a total percentage. X-axis indicates indels relative to unmodified (shown as bar in position 0). Deletions are shown to the left of the 0 position and each bar is between 1-10 bp away from the target site. Insertions of +1 bp are shown to the right of the 0 position. Asterisks show +1, −1, and −7 bp insertions/deletions and the frequency of these events increased with Dexamethasone exposure (comparing FIG. 4C with FIG. 4D), Dark black bars in FIGS. 4C-4D indicate editing events <0.5%.
To determine whether the GR1 and GR2 guides were also capable of knocking out the NR3C1 locus in cultures of clinically-relevant Tregs, banked Tregs were thawed and re-stimulated with anti-CD3/28 beads in high dose IL-2 (300 U/ml). On day 3, the Tregs were electroporated as above in the absence or presence of GR1 or GR2 GRISPR/Cas9 RNP and returned to culture in optimal expansion conditions. After 2 days, Treg cultures were harvested and were re-cultured±Dexamethasone (30 μg/ml) for an additional 48 hours (7 days total), at which time cultures were harvested, and relative survival was assessed by flow cytometry using a viability dye and counting beads. The dose of 30 μg/mL was identified by performing beta testing in Jurkat and primary T-cells that had undergone CRISPR/Cas9 gene modification and Dexamethasone dosing from 0-100 μg/mL. […] CRISPR/Cas9 gene repair by non-homologous endjoining results in insertions and deletions (indel) proximal to the gRNA binding site. As such, the indel pattern using a sequence trace decomposition algorithm called TIDE (tracking of indels by decomposition) was assessed. Pre- and post-Dexamethasone exposure samples were analyzed (FIGS. 4C and 4D, respectively). The frequency of out of frame indels that are predicted to result in gene inactivation in Tregs prior to Dexamethasone addition was ˜35%, which is similar to what was experimentally observed for peripheral blood T cells treated with GR2 GRISPR/Cas9 reagents (˜40%). Following culture in Dexamethasone, the frequency of indels increased to 44%. Without being bound by any theory, this indicates preferential survival of gene modified Tregs.

[4] = tested on: exon 2 of the NR3C1 gene; experiment: HDR in Tregs, inside-out PCR and Sanger sequencing; format: cell-based, human; settings: AAV-6 donor at various MOI
Experimental: FIGS. 5A-5C depicts homology directed repair (HDR) in Tregs. FIG. 5A depicts the gene targeting strategy. A calcineurin resistant gene co-expressed with GFP was designed such that it could be targeted to exon 2 of the NR3C1 gene resulting in a loss of 21 amino acids. The donor was encapsulated in AAV-6 particles and screening was performed using an inside/out PCR with primers (indicated by horizontal arrows) within the donor and outside of the donor at the target locus. FIG. 5B depicts gene targeting optimization. Activated Tregs were electroporated with NR3C1 Cas9 RNPs and the different indicated amounts of AAV-6 donor were added. Inside/out PCR results are shown with Sanger sequencing confirmation of the junction between the donor and the adjacent locus sequence shown in FIG. 5C.
To achieve dual drug (steroid and calcineurin inhibitor) resistance, Jurkat and primary T-cells were used to define the conditions for optimal homology directed repair (HDR). Cas9 mRNA and Cas9 RNP approaches were compared and assessed for their ability to facilitate HDR using a reporter HDR construct at the human AAVS1 locus. […] Flanking the calcineurin resistance gene were donor targeting arms homologous to the NR3C1 gene such that insertion disrupted exon 2 with concomitant deletion of 21 amino acids (FIG. 5A). […]

[5] = tested on: NR3C1; experiment: Base editing of NR3C1 in Tregs (Sanger sequencing, EditR); format: cell-based, human; settings: Tregs electroporated with base editor mRNA and guide RNA
Source text: Treg cells were base edited by electroporation of the base editor as protein or mRNA encoding said base editor, along with a guide RNA to target bases for editing with said base editor. The genomic DNA of the edited cells was then isolated and the target locus was PCR amplified. The PCR amplified locus was then sequenced by Sanger sequencing. Base conversion was observed by identifying multiple peaks at the target site. The PCR amplicon sequence data then underwent decomposition using the EDITR method to quantify base editing frequency (see, Kluesner et al. “EditR: A novel base editing quantification software using Sanger sequencing”.DOI: 10.1101/213496.2017). For FIGS. 19-22, and 24-27, the base edited sequences are marked by red open boxes.
FIG. 16 depicts a schematic showing base editing wherein the CRISPR deactivated or nicking DNA binding domain is a dCas9, and the base-editing domain is a cytidine deaminase. Base editors can be delivered as RNP complexes whereby the guide RNA may or may not be modified with phosphorothioate bonds to prevent intracellular degradation by endogenous RNAses. […] Further, the sequences at exon:intron boundaries defined as splice donors and acceptors that are required for intron excision and proper open reading frame orientation and expression were also targeted for conversion in order to disrupt splicing. […]

[6] = tested on: Tregs; experiment: CNI (CsA, FK506) effect on Treg survival in vitro; format: cell-based, human; settings: cyclosporine 20, 200, 2000 ng/ml or FK506 3, 10, 30 ng/ml, 2-3 days; IL-2 300 U/mL; even at >3-fold over peak therapeutic values
Source text: The percent survival relative to the control Tregs without drugs is shown. IL-2 concentration of 300 U/mL was used. […] FIG. 7D depicts data showing the percent relative survival of Tregs without drug at IL-2 300 U/mL as compared to those cultured with the indicated concentrations of drug in the presence of IL-2 at 30, 100, or 300 U/mL as indicated. Mean values are shown±standard error of the mean for three (FIG. 7B) or four (FIG. 7D) separate cultures.
To model the in vivo inhibitory effects of CNI on Treg survival and expansion, banked Tregs were thawed, re-stimulated, expanded for 4±1 days and treated with or without cyclosporine (20, 200, and 2000 ng/ml) or FK506 (3, 10, 30 ng/ml) for an additional 2-3 days and relative survival was assessed by flow cytometry. Studies were performed with non-separated Tregs, naïve Tregs and memory Tregs, to determine whether one subset was differentially sensitive to Dex and CNIs and to determine whether IL-2 dependency differences might permit lower IL-2 concentrations.

[7] = tested on: allogeneic GVHD model; format: in vivo
Source text: To test whether gene modified (GR2-CRISPR/Cas9) or gene edited (GR2-CRISPR/Cas9/AAV-CaN mut.) Tregs have increased efficacy in vivo in the presence of glucocorticoid, how glucocorticoid (methyl-prednisolone) effects GVHD in preclinical mouse models was first determined. […] For these reasons, as well as the more logistically feasible and cost effective benefits of an allogeneic GVHD model, optimized steroid use in allogeneic recipients for GVHD prevention and therapy were first tested, and then applied to a xenogeneic model to enable testing of the human Treg product. […] The T cell dose was reduced to 1.5×10^6 and moved to GVHD therapy beginning on day 3 or day 4 (rather than day 1 prophylaxis) and compared no treatment to vehicle to prednisolone (n=8/group).

[8] = tested on: xeno-GVHD model; experiment: Xenogeneic GVHD model (NSG mice given human PBMC); format: in vivo
Experimental: FIGS. 11A-11D depicts the monitoring of GVHD in mice. Human PBMC (15×10^6) were injected into irradiated (50 rad) NSG mice±methylprednisolone (15 mg/kg), and signs of GVHD were monitored. FIG. 11A depicts a schematic illustration of the experiments indicating cohorts (n=7 mice each), dosing schedule, and analysis points. FIG. 11B depicts Kaplan-Meier survival curves for mice receiving PBMC only, or PBMC+prednisolone (p=0.104). FIG. 11C depicts disease progression monitored by weight loss (p=not significant). FIG. 11D depicts disease progression monitored by quantitating the number of PBMC-derived CD45+, CD4+, CD8+, and CD4+Foxp3+ T cells (p<0.03, <0.05, <0.03, and not significant, respectively). Animals were bled on day 19 for assessment.
FIGS. 12A-12D depicts the monitoring of GVHD in mice. […] FIG. 12B depicts Kaplan-Meier survival curves for mice receiving PBMC only, or PBMC+CNI (PBMC only vs. FK506 (36 mg/kg), p≤0.04). FIG. 12C depicts disease progression monitored by weight loss (p=not significant). FIG. 12D depicts disease progression monitored by quantitating the number of PBMC-derived CD45+, CD4+, CD8+, and CD4+Foxp3+ T cells (p<0.03, <0.05, <0.02, and not significant, respectively). Animals were bled on day 18 for assessment.
A follow up study has shown that xeno-GVHD pathology induced with 200 rad+1×10^7 human PBMC is more reproducible, and median survival is reduced from ˜25 days to ˜20 days.

Compound	nuclease activity (Surveyor DNA fragmentation products) [1]	survival in the presence of Dexamethasone [2]	frequency of indels ([3]; Tregs following culture in Dexamethasone)	frequency of out of frame indels ([3]; Tregs prior to Dexamethasone addition)	frequency of out of frame indels ([3]; peripheral blood T cells)	total gene modification rate ([3]; post-Dexamethasone cells, FIG. 4D)	total gene modification rate ([3]; pre-Dexamethasone cells, FIG. 4C)	HDR by inside-out PCR [4]	base editing outcome at the genetic locus [5]	effect on Treg survival in vitro [6]	day 100 survival ([7]; 36 mg/kg/day in carboxymethylcellulose, vehicle 0% by day 37)	GVHD prophylaxis efficacy ([7]; 12 or 24 mg/kg/day in aqueous solution)	optimal GVHD prophylactic dose ([7]; allogeneic GVHD model)	survival ([8]; 12 mg/kg, P=0.45)	median survival ([8]; 12 mg/kg, controls 29 days)	in vivo expansion of human CD45+, CD4+ and CD8+ cells ([8]; FK506 36 or 12 mg/kg, CsA 80 mg/kg, vs PBMC only controls)	survival ([8]; high dose, 36 mg/kg)
GR2: gRNA TTGAGAAGCGACAGCCAGTG (anti-sense), exon 2 of NR3C1 (guide UUGAGAAGCGACAGCCAGUG; RNA, backbone not given here; 5' and 3' phosphorothioate bonds)	exhibited the highest activity levels	significantly increased survival	44%	~35%	~40%	44%	35%	HDR was observed in Tregs at each MOI	premature TAG stop codon								
C=CC[C@@H]1/C=C(\C)C[C@H](C)C[C@H](OC)[C@H]2O[C@@](O)(C(=O)C(=O)N3CCCC[C@H]3C(=O)O[C@H](/C(C)=C/[C@@H]3CC[C@@H](O)[C@H](OC)C3)[C@H](C)[C@@H](O)CC1=O)[C@H](C)C[C@@H]2OC [FK506, Tacrolimus]										neither CsA or FK506 had a significant effect on Treg survival	55%-90	poorer efficacy	36 mg/kg/day	not significantly different	20 days	significantly reduced	significantly decreased survival
